Data as given in patent publication US11850238B2, “Use of a thienopyridone derivative in the treatment of adrenoleukodystrophy or adrenomyeloneuropathy” (POXEL, priority 2020, dated 2023).
Where two headings read alike, the source gives them in different places.

How the values were obtained:
[1] = system: AMN human patient-derived primary fibroblasts; test: Hexacosanoic acid (VLCFA) level in AMN patient-derived fibroblasts, LC-MS; type: cell-based; conditions: AMN patient-derived fibroblasts
Description: In order to compare the efficacy of PXL770 and metformin to lower very long chain fatty acids (VLCFA) in vitro, the study focuses on the level assessment of the hexacosanoic acid, which is the most prevalent VLCFA, in healthy control cells and in AMN human patient-derived primary fibroblasts. The cell lines were obtained from Coriell Cell Repositories. Fibroblasts were cultured in DMEM with 15% FBS. The cultures were split in 1:5 ratio. Fibroblasts from healthy patients were used as control. All treatments were in complete media containing fetal bovine serum (FBS, 15%). All cultured cells were maintained at 37° C. in 5% CO2.
VLCFA content was then measured as follows. Samples are adjusted to a final volume of 0.5-1 ml with LC-MS grade water and spiked with 10 ng of Lignoceric acid-d4 as an internal standard. The sample is acidified to pH 3-4 with dilute hydrochloric acid and extracted with isooctane-ethyl acetate (9:1) three times with equal volume. The extract is dried under nitrogen and the residue is reconstituted in methanol-water-ammonium acetate (75:25:10 mM).
Total fatty acids: After preparing the samples with internal standard as described above for free fatty acids, aqueous sodium hydroxide is added to a final concentration of 1 M. The mixture is incubated at 37° C. in dark under nitrogen for 3 h. The samples are then acidified, extracted, and reconstituted as described above.
LC-MS analysis of fatty acids: The reconstituted fatty acid extracts are subjected to HPLC on Targa C8 column (2×10 mm) using methanol-aqueous ammonium acetate (10 mM) solvent mixture. The column is eluted with a gradient of methanol (75 to 90%) over 8 min at a flow rate of 0.25 ml/min. The column eluent is directly introduced to mass analyzer (QTRAP5500) and monitored for fatty acids using published pseudo MRM method. Under these conditions, the VLCFA elute between 5 and 8 min. Each fatty acid is quantitated against the added internal standard.
The study planned different groups of patients. First, the evolution of hexacosanoic acid in fibroblasts is monitored in healthy control cells and in AMN human patient-derived primary fibroblasts; and in a second time a treatment of PXL770 was assigned to AMN human-derived primary fibroblasts in culture at different doses (PXL770: 0.1, 0.5, 1, 2, 3.5 and 5 μM; metformin: 100, 200, 300 and 400 μM) for one week and the level of hexacosanoic acid was measured.
The experiment described in Example 3 was reproduced with various thienopyridone compounds, namely: • PXL770: potassium 2-chloro-3-(5-hydroxytetralin-6-yl)-6-oxo-5-phenyl-7H-thieno[2,3-b]pyridin-4-olate • PXL700: 2-chloro-4-hydroxy-3-indan-5-yl-5-(3-pyridyl)-7H-thieno[2,3-b]pyridin-6-one • PXL702: 2-chloro-4-hydroxy-3-(4-hydroxyindan-5-yl)-5-phenyl-7H-thieno[2,3-b]pyridin-6-one • PXL695: 2-chloro-5-(3-fluorophenyl)-4-hydroxy-3-(4-hydroxyindan-5-yl)-7H-thieno[2,3-b]pyridin-6-one, • each tested at concentrations from 0.1 to 5 μM.
A one-way ANOVA with Dunnett's multiple comparison test was performed to assess the effect of PXL770 on brain's VLCFAs (**** p<0.0001, *** p<0.001). A Kruskal-Wallis test with Dunn's multiple comparison test was performed to assess the effect of PXL770 on plasma's VLCFAs (**** p<0.0001, […]).

[2] = system: ABCD2; conditions: ABCD1-KO mice glial cells, 100 μM; FIG. 12; cited from earlier work
[3] = system: cultured fibroblasts; conditions: cited from earlier work
[4] = system: ABCD2; conditions: AMN patient's derived fibroblasts, 5 mM; FIG. 11; cited from earlier work
[5] = system: ALD patient-derived lymphocytes; conditions: ALD patient's derived lymphocytes, 5 mM, 7 days of treatment; FIG. 9; cited from earlier work
[6] = system: AMN human patient-derived primary lymphocytes; conditions: AMN patient's derived lymphocytes, 5 mM, 7 days of treatment; FIG. 9; cited from earlier work
[7] = system: ABCD2; conditions: ALD patient's derived fibroblasts, 5 mM; FIG. 11; cited from earlier work
[8] = concentrations from 0.1 to 5 μM, FIG. 14

Structure (SMILES): O=c1[nH]c2sc(Cl)c(-c3ccc4c(c3O)CCC4)c2c(O)c1-c1cccc(F)c1 [PXL695, 2-chloro-5-(3-fluorophenyl)-4-hydroxy-3-(4-hydroxyindan-5-yl)-7H-thieno[2,3-b]pyridin-6-one]
- VLCFA levels [1, 8]: comparable decrease

Structure (SMILES): O=c1[nH]c2sc(Cl)c(-c3ccc4c(c3)CCC4)c2c(O)c1-c1cccnc1 [PXL700, 2-chloro-4-hydroxy-3-indan-5-yl-5-(3-pyridyl)-7H-thieno[2,3-b]pyridin-6-one, reference compound]
- VLCFA levels [1, 8]: no or a very limited effect

Structure (SMILES): O=c1[nH]c2sc(Cl)c(-c3ccc4c(c3O)CCC4)c2c(O)c1-c1ccccc1 [PXL702, 2-chloro-4-hydroxy-3-(4-hydroxyindan-5-yl)-5-phenyl-7H-thieno[2,3-b]pyridin-6-one]
- VLCFA levels [1, 8]: comparable decrease

Structure (SMILES): CN(C)C(=N)N=C(N)N [metformin]
- ABCD2 protein levels [2]: limited increase
- dose at which efficacy is observed [3]: at least 100 μM
- ABCD2 protein expression [4]: only slightly increased
- decrease of VLCFA content [5]: −42%
- decrease of VLCFA content [6]: −29%
- VLCFA levels ([1]; 400 μM, compared with thienopyridones at 5 μM, FIG. 15): no or a very limited effect
- ABCD2 protein expression [7]: only slightly increased
